Values joined by “and” are separate entries in the source; they are usually repeats but may differ in a detail not shown here. Equal values may be shown once. Toxic doses and inconclusive results are not listed. Rule for the calls: active = survival T/C of 150% or more; inactive = T/C below 125% in these data.
Test system: P388 leukemia ip, CD2F1 mice, survival T/C
Assay: NCI In Vivo Anticancer Drug Screen. Data for tumor model P388 Leukemia (intraperitoneal) in CD2F1 (CDF1) mice
Details: endpoint: median survival time, higher = longer survival
Method in brief: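 Mice carrying the transplanted tumor received test compound or vehicle. Survival was recorded in each group, and the value is the treated-group measurement divided by that of the vehicle-treated control group.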

[1] = dose: 60.0 mg/kg/injection, schedule: Q01DX005 (ip), vehicle: saline with Tween-80
[2] = dose: 120.0 mg/kg/injection, schedule: Q01DX005 (ip), vehicle: saline with Tween-80
[3] = dose: 240.0 mg/kg/injection, schedule: Q01DX005 (ip), vehicle: saline with Tween-80
[4] = dose: 15.0 mg/kg/injection, schedule: Q01DX005 (ip), vehicle: saline with Tween-80
[5] = dose: 30.0 mg/kg/injection, schedule: Q01DX005 (ip), vehicle: saline with Tween-80

Measured: T/C

N#Cc1ccccc1NC(=O)Nc1ccc(Cl)cc1Cl
inactive: dose: 0.46 mg/kg/injection, schedule: Q01DX005 (ip), vehicle: saline with Tween-80 94 % of control | dose: 0.93 mg/kg/injection, schedule: Q01DX005 (ip), vehicle: saline with Tween-80 97 % of control | dose: 1.87 mg/kg/injection, schedule: Q01DX005 (ip), vehicle: saline with Tween-80 99 % of control | [1] 91 % of control and 92 % of control | [2] 88 % of control | [3] 98 % of control

CC(=O)Nc1ccc(Br)c(NC(C)=O)n1
inactive: dose: 100.0 mg/kg/injection, schedule: Q04DX003 (ip), vehicle: saline with Tween-80 104 % of control | dose: 200.0 mg/kg/injection, schedule: Q04DX003 (ip), vehicle: saline with Tween-80 104 % of control | dose: 400.0 mg/kg/injection, schedule: Q04DX003 (ip), vehicle: saline with Tween-80 109 % of control

O=C(CCl)Nc1ccc2c(c1)C(=O)c1cccn1-2
inactive: dose: 25.0 mg/kg/injection, schedule: Q01DX001 (ip), vehicle: Klucel (hydroxypropylcellulose) (HPC) 97 % of control | dose: 25.0 mg/kg/injection, schedule: Q04DX003 (ip), vehicle: Klucel (hydroxypropylcellulose) (HPC) 92 % of control | dose: 50.0 mg/kg/injection, schedule: Q01DX001 (ip), vehicle: Klucel (hydroxypropylcellulose) (HPC) 97 % of control | dose: 50.0 mg/kg/injection, schedule: Q04DX003 (ip), vehicle: Klucel (hydroxypropylcellulose) (HPC) 97 % of control | dose: 100.0 mg/kg/injection, schedule: Q01DX001 (ip), vehicle: Klucel (hydroxypropylcellulose) (HPC) 96 % of control | dose: 100.0 mg/kg/injection, schedule: Q04DX003 (ip), vehicle: Klucel (hydroxypropylcellulose) (HPC) 107 % of control

O=C(CNC(=O)Nc1ccc(Cl)c(Cl)c1)N/N=C/C=C/c1ccccc1
inactive: [4] 96 % of control | [5] 87 % of control

Nc1ccc(N=O)c(N)n1
inactive: dose: 0.78 mg/kg/injection, schedule: Q01DX009 (ip), vehicle: saline 98 % of control | dose: 1.56 mg/kg/injection, schedule: Q01DX009 (ip), vehicle: saline 86 % of control | dose: 6.25 mg/kg/injection, schedule: Q01DX009 (ip), vehicle: saline with Tween-80 107 % of control | dose: 12.5 mg/kg/injection, schedule: Q01DX009 (ip), vehicle: saline with Tween-80 98 % of control | dose: 12.5 mg/kg/injection, schedule: Q01DX009 (ip), vehicle: saline 98 % of control | dose: 25.0 mg/kg/injection, schedule: Q01DX009 (ip), vehicle: saline with Tween-80 100 % of control | dose: 50.0 mg/kg/injection, schedule: Q01DX009 (ip), vehicle: saline 106 % of control

CC(C)C(N)C(=O)NC(C(=O)O)C(C)C (centres undefined)
inactive: dose: 6.25 mg/kg/injection, schedule: Q01DX005 (ip), vehicle: saline 95 % of control | dose: 12.5 mg/kg/injection, schedule: Q01DX005 (ip), vehicle: saline 95 % of control | dose: 25.0 mg/kg/injection, schedule: Q01DX005 (ip), vehicle: saline 96 % of control | dose: 50.0 mg/kg/injection, schedule: Q01DX005 (ip), vehicle: saline 98 % of control | dose: 100.0 mg/kg/injection, schedule: Q01DX005 (ip), vehicle: saline 88 % of control and 104 % of control | dose: 200.0 mg/kg/injection, schedule: Q01DX005 (ip), vehicle: saline 100 % of control

CCOc1ccc(O)c(CN2CCN(Cc3cc(OCC)ccc3O)CC2)c1
inactive: [4] 100 % of control | [5] 100 % of control | [1] 98 % of control and 124 % of control

CCOC(=O)c1cc(NC(C)=O)cn1C
inactive: dose: 50.0 mg/kg/injection, schedule: Q01DX009 (ip), vehicle: saline with Tween-80 102 % of control | dose: 100.0 mg/kg/injection, schedule: Q01DX009 (ip), vehicle: saline with Tween-80 104 % of control | dose: 200.0 mg/kg/injection, schedule: Q01DX009 (ip), vehicle: saline with Tween-80 103 % of control

O=C(Oc1ccccc1)c1cc(O)c(O)c(O)c1
inactive: dose: 25.0 mg/kg/injection, schedule: Q01DX005 (ip), vehicle: saline with Tween-80 100 % of control and 95 % of control | dose: 50.0 mg/kg/injection, schedule: Q01DX005 (ip), vehicle: saline with Tween-80 100 % of control and 101 % of control | dose: 100.0 mg/kg/injection, schedule: Q01DX005 (ip), vehicle: saline with Tween-80 99 % of control and 100 % of control | dose: 200.0 mg/kg/injection, schedule: Q01DX005 (ip), vehicle: saline with Tween-80 101 % of control and 116 % of control | dose: 400.0 mg/kg/injection, schedule: Q01DX005 (ip), vehicle: saline with Tween-80 109 % of control

O=c1c2[nH]c3ccccc3sc=2c(=O)n1-c1ccc(Cl)cc1
inactive: [1] 103 % of control | [2] 98 % of control | [3] 94 % of control

Source: PubChem BioAssay AID330 (DTP/NCI, 2004)
